Measurements: the METLIN SMRT retention time set (Domingo-Almenara et al. 2019)

Experiment: gradient 5% acetonitrile 3 min, to 50% in 2 min, to 85% in 15 min, held 3 min, 100 µL/min
Details: column: Zorbax Extend-C18 2.1 x 50 mm; eluents: water / acetonitrile, 0.1% formic acid
Summary of the method: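 In both positive and negative ionization mode, a quadrupole time-of-flight mass spectrometer coupled to HPLC analyzed pure standards run in mixtures of ~100 molecules. The Zorbax Extend-C18 column (2.1 × 50 mm, 1.8 μm) was operated at 100 μL/min with water and acetonitrile, each containing 0.1% formic acid. The dead volume was 40 μL and the dwell volume 900 μL. Retention time came from adduct peaks that were computationally picked and individually inspected by hand.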

## CC1=C(c2ccc(Cl)cc2)S(=O)(=O)N=C1N1CCC(C(=O)NCCN(C)C)CC1
  RP-LC retention time: 642 s

## Cn1cccc1C(=O)C(=O)Nc1ccc(C#N)cc1
  RP-LC retention time: 872 s

## CCOc1ccc(NC(=O)CN2CCN(Cc3ccc(C)cc3)C(=O)C2=O)cc1
  RP-LC retention time: 799 s

## CN(CC1(C)CCOCC1)C(=O)c1ccc(C#N)cc1
  RP-LC retention time: 716 s

## COc1ccc(NC(=O)Cc2csc3nc(-c4ccccc4)cn23)cc1OC
  RP-LC retention time: 703 s

## CC(C)c1nnc2n1CCN(C(=O)c1nccc3ccccc13)C2
  RP-LC retention time: 605 s

## Cc1ccc(Nc2c(-c3ccc(O)cc3)nc3ccc(C)cn23)cc1
  RP-LC retention time: 721 s

## O=C(Oc1ccc(NC2=NS(=O)(=O)c3ccccc32)cc1)c1ccccc1
  RP-LC retention time: 935 s

## Cc1ccc(C(=O)N2CCC3(CC2)N=C(c2ccccc2)NO3)s1
  RP-LC retention time: 810 s

## O=C(c1ccc(N2C[C@H]3C[C@H](C2)[C@H]2CCCC(=O)N2C3)nc1)N1CCC2(CC1)OCCO2
  RP-LC retention time: 584 s

## CCN(CCCNC(=O)C1CCCN(c2ncnc3c2nc2n3CCCCC2)C1)c1cccc(C)c1 (centres undefined)
  RP-LC retention time: 647 s

## CCOC(=O)CNC(=O)N1CCN(Cc2nc3cc(C)ccc3o2)CC1
  RP-LC retention time: 616 s

## CCCn1cc(C(=O)NCCC(C)C)c(S(=O)(=O)N2CCN(c3ccccc3OCC)CC2)n1
  RP-LC retention time: 1240 s

## O=C1[C@H]2CN(Cc3ccccc3Cl)C[C@H]2C(=O)N1CCN1CCc2ccccc2C1
  RP-LC retention time: 661 s

## O=C(COc1ccc(Cl)cc1)N1CCN(c2cc(-c3ccccc3)[nH]n2)CC1
  RP-LC retention time: 814 s

## COC(=O)N1CCN(CCNC(=O)NC2CCCCC2)CC1
  RP-LC retention time: 503 s

## O=C(c1cc(-c2cccnc2)n[nH]1)N1CCN(C(=O)c2cc3ccccc3[nH]2)CC1
  RP-LC retention time: 633 s

## COC(=O)c1cccc(C(=O)Nc2ccccc2)n1
  RP-LC retention time: 800 s

## CCN1C(=O)C(C)(C(=O)NCc2ccc(C)cc2)Oc2cccnc21 (centres undefined)
  RP-LC retention time: 912 s

## CCCN(C)C(=O)C1CCCCc2nnc(C(C)C)n21 (centres undefined)
  RP-LC retention time: 622 s

## CCC(=O)N1CCc2c(sc3ncnc(NCc4ccccc4)c23)C1
  RP-LC retention time: 790 s

## CCCC(C)NC(=O)CN1c2ccc(F)cc2-c2ccccc2S1(=O)=O (centres undefined)
  RP-LC retention time: 950 s

## CCC(=O)NCc1nc(-c2ccccc2Cl)no1
  RP-LC retention time: 717 s

## COc1ccc(C2(C(=O)N3CCc4nn(C)c(=O)n4CC3)CC2)cc1
  RP-LC retention time: 657 s

## CCN1C(=O)c2cccnc2Sc2cc(NC(=O)Cc3cccc(F)c3)ccc21
  RP-LC retention time: 826 s

## COc1ccc(-c2ncc3c(n2)CCN(S(=O)(=O)c2ccc(F)c(Cl)c2)C3)cc1
  RP-LC retention time: 1130 s

## O=C([C@@H]1C[C@H](F)CN1S(=O)(=O)Cc1ccccc1Cl)N1CCc2ccccc2C1
  RP-LC retention time: 986 s

## COC[C@@H]1[C@H](C(=O)NCCC(C)C)CCC(=O)N1C
  RP-LC retention time: 643 s

## Cc1cc(NC(=O)C2=COCCO2)no1
  RP-LC retention time: 600 s

## CCOc1ccc(-c2nc(-c3cccc(-c4ccnn4C)c3)no2)cc1OCC
  RP-LC retention time: 1210 s

## O=C(CCSc1nnnn1-c1ccccc1)Nc1ccc2c(c1)OCO2
  RP-LC retention time: 794 s

## O=C(Nc1ccc2ncnc(N3CCCCC3)c2c1)c1cncc(Br)c1
  RP-LC retention time: 665 s

## CCc1nn2c(CNS(=O)(=O)Cc3cc(F)cc(F)c3)c(-c3ccccc3)nc2s1
  RP-LC retention time: 1010 s

## CC(C)NS(=O)(=O)c1ccc(NC(=O)Cn2cncn2)cc1
  RP-LC retention time: 602 s

## Cc1cccc(-c2noc(CSc3nc4cc5c(cc4c(=O)n3CC3CCCO3)OCO5)n2)c1 (centres undefined)
  RP-LC retention time: 1170 s

## O=C(NCCN1CCOCC1)c1nnc(-c2ccc(S(=O)(=O)N3CCOCC3)cc2)o1
  RP-LC retention time: 578 s

## COc1ccc2c(CCNC(=O)CCc3ccccc3)c[nH]c2c1
  RP-LC retention time: 796 s

## CSc1cccc(NC(=O)N2CCC(CC(=O)NCc3cccc(F)c3)CC2)c1
  RP-LC retention time: 843 s

## CC(C)n1cnc(S(=O)(=O)N2CCCC(C(=O)NCc3ccc(N(C)C)cc3)C2)c1 (centres undefined)
  RP-LC retention time: 597 s

## O=C(c1ccc(Cl)cc1)N1CCN(c2nc(CN3CCCCC3)cs2)CC1
  RP-LC retention time: 808 s

## CCN1C(=O)c2cc(S(=O)(=O)Nc3ccccc3F)ccc2Oc2cccnc21
  RP-LC retention time: 924 s

## Cc1cc(C)c2[nH]c3c(c(=O)c2c1)CN(CC(=O)Nc1ccccc1)CC3
  RP-LC retention time: 627 s

## COc1ccccc1N1CCN(C(=S)Nc2ccc3nc(N4CCN(C)CC4)cc(C)c3c2)CC1
  RP-LC retention time: 586 s

## O=C1C2N=NN(c3cccc(F)c3)C2C(=O)N1c1ccccc1 (centres undefined)
  RP-LC retention time: 925 s

## COc1ccc(S(=O)(=O)N2CCCC(C(=O)NCc3ccncc3)C2)cc1OC (centres undefined)
  RP-LC retention time: 591 s

## Cc1cccc(N2CCN(C(=O)c3cc4c(=O)n(C)ccc4n3C)CC2)c1C
  RP-LC retention time: 818 s

## O=C(Nc1ccc(OCc2nnc(-c3ccccc3)o2)cc1)C1COc2ccccc2O1 (centres undefined)
  RP-LC retention time: 984 s

## CCCC(=O)Nc1ccc2c(c1)CN(C(=O)CC1CCCC1)C(C(=O)N(C)C)C2 (centres undefined)
  RP-LC retention time: 716 s

## COCCCNC(=O)N1CCCN(C2=NS(=O)(=O)C(c3ccccc3)=C2C)CC1
  RP-LC retention time: 679 s

## COc1cccc(Cn2c(C(=O)N3CCC(C(=O)NC4CCCCCC4)CC3)cc3ccsc32)c1
  RP-LC retention time: 1070 s

## CCn1c(-c2ccccc2)cc(C(=O)NC)c1C
  RP-LC retention time: 807 s

## O=C(Cc1csc(NC(=O)NC2CCCCC2)n1)NCc1c(F)cccc1F
  RP-LC retention time: 737 s

## Cc1cccc(CN2CCC(CNC(=O)C3CCCN(c4cc(=O)n(C)c(=O)n4C)C3)CC2)c1 (centres undefined)
  RP-LC retention time: 599 s

## CCC(C(=O)N1CCN(c2ccccn2)CC1)n1ccc2cc(S(=O)(=O)N3CCCCC3)ccc21 (centres undefined)
  RP-LC retention time: 734 s

## O=C1CN(S(=O)(=O)c2cc(F)ccc2F)C2(CCCCC2)CN1CC1CC1
  RP-LC retention time: 959 s

## O=C(CN1CCN(Cc2ccc(F)cc2)C(=O)C1=O)N1CCN(c2ccccc2F)CC1
  RP-LC retention time: 778 s

## CC(CCc1ccccc1)NC(C)C(O)c1ccc(O)cc1 (centres undefined)
  RP-LC retention time: 712 s

## CCn1nccc1C(=O)NC1CCN(C2=NS(=O)(=O)C(c3ccccc3)=C2C)CC1
  RP-LC retention time: 764 s

## CCc1ccc(NC(=O)c2sc(-c3cccn3CC)nc2C)cc1
  RP-LC retention time: 1260 s

## O=C(Nc1ccccc1)C1(CCO)CCN(Cc2ccccc2)C1 (centres undefined)
  RP-LC retention time: 624 s

## Cc1csc(-c2cc(S(=O)(=O)NCc3ccco3)c(C)n2C)n1
  RP-LC retention time: 864 s

## Cc1ccc(N2CCN(CC(O)COc3ccccc3)CC2)cc1 (centres undefined)
  RP-LC retention time: 698 s

## COc1c(C(=O)NCCN2CCC(C)CC2)sc2ccc(Cl)cc12
  RP-LC retention time: 710 s

## O=C1NC2(CCN(C(=O)c3ccc4c(c3)OCO4)CC2)N=C1c1cccc(Cl)c1
  RP-LC retention time: 835 s

## Cc1ccc(-n2nnnc2CNS(=O)(=O)c2ccc(F)cc2F)cc1
  RP-LC retention time: 792 s

## COc1cc(NC(=O)CCc2c(-c3ccc(F)cc3)nc3ccccn23)cc(OC)c1
  RP-LC retention time: 672 s

## COC(=O)c1ccccc1NC(=O)Cn1c(=O)c(CCC(=O)NCC(C)C)nc2ccccc21
  RP-LC retention time: 878 s

## CC(=O)c1ccc(NS(=O)(=O)c2ccc(-c3c(C)noc3C)cc2)cc1
  RP-LC retention time: 813 s

## CCN1CCCn2cc(S(=O)(=O)Nc3cc(OC)cc(OC)c3)cc2C1=O
  RP-LC retention time: 704 s

## CC(=O)Nc1onc(C)c1-c1ccc(C)c(S(=O)(=O)N2CCN(C3CCCCC3)CC2)c1
  RP-LC retention time: 629 s

## O=C(Nc1ccc(C2=NCCCN2)cc1)Nc1ccc(C2=NCCCN2)cc1
  RP-LC retention time: 581 s

## O=C(c1c[nH]c2ccccc12)N1CCCCC1c1nc(C2CC2)no1 (centres undefined)
  RP-LC retention time: 866 s

## Cc1nc(-c2ccc(F)cc2)sc1C(=O)N1CCC(CC(=O)N(C)Cc2ccco2)CC1
  RP-LC retention time: 890 s

## Cc1ccc(Cc2nc(-c3ccnc(N4CCOCC4)c3)no2)cc1
  RP-LC retention time: 908 s

## CCC(CC)C(=O)N1CCCN(C2=NS(=O)(=O)C(c3ccc(F)cc3)=C2C)CC1
  RP-LC retention time: 811 s

## Cc1ccc(NC(=O)N2CCCC(C)(C(=O)NCc3ccc(F)cc3)C2)cc1F (centres undefined)
  RP-LC retention time: 959 s

## CCOc1cccc(CNC(=O)c2c(C)sc3ccn(CC)c(=O)c23)c1
  RP-LC retention time: 856 s

## Cc1occc1-c1nnc2sc(COc3ccccc3Cl)nn12
  RP-LC retention time: 994 s

## O=C(Nc1ccc(C2(C(=O)NCc3ccc(F)cc3Cl)CCC2)cc1)C1CC1
  RP-LC retention time: 898 s

## CCOCCCNC(=O)C1CCCN(c2nnc(C)c3c(C)n(-c4ccccc4)nc23)C1 (centres undefined)
  RP-LC retention time: 655 s

## Cc1ccc2c(c1)C(O)(CC(=O)c1ccc(F)cc1)C(=O)N2 (centres undefined)
  RP-LC retention time: 717 s

## CC(=O)N1CCc2cc(S(=O)(=O)C(C)CC(=O)N3CCN(c4cccc(C)c4C)CC3)ccc21 (centres undefined)
  RP-LC retention time: 935 s

## CCOC(=O)Cc1csc(NC(=O)Cn2nc3c(cc2=O)CCCC3)n1
  RP-LC retention time: 718 s

## O=C(NC1CCN(c2cc(-c3ccccc3)[nH]n2)C1)c1cc2ccccc2[nH]1 (centres undefined)
  RP-LC retention time: 739 s

## CNC(=O)c1cc2cc(Br)ccc2[nH]1
  RP-LC retention time: 771 s

## COCCN1C(=O)c2cc(-c3ccc(OC)c(OC)c3)nn2CC1(C)C(=O)NC1CCCCC1 (centres undefined)
  RP-LC retention time: 824 s

## Cc1ccc(-c2nnc(-c3ccccc3)o2)cc1S(=O)(=O)N1CCCCC1
  RP-LC retention time: 1100 s

## Cc1ccc(-n2cc3c(N4CCCC(C(=O)NCc5cc(F)cc(F)c5)C4)ncnc3n2)cc1 (centres undefined)
  RP-LC retention time: 740 s

## CCOC(=O)c1c(C)[nH]c(C)c1S(=O)(=O)N1CCC(C(=O)Nc2ccc(NC(C)=O)cc2)CC1
  RP-LC retention time: 666 s
